What was measured:
wild oat = experiment: Test B postemergence herbicide test; format: in vivo, Avena fatua; conditions: postemergence
Procedure, shortened: (§1)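 Each value is a visual 0–100 response rating taken against controls 13 to 15 days after treatment in the greenhouse. Plants received formulated chemical postemergence at the 1- to 4-leaf stage or, in flooded paddy, at the 2-leaf stage.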

corn = experiment: Test B pre-/postemergence herbicide test; format: in vivo, Zea mays; conditions: for Corn plant response rating (0 to 100 scale) / Plant response rating, Corn: preemergence; for Corn plant response rating: postemergence
Procedure, shortened: (§2)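 Response was scored visually 13 to 15 days after treatment against untreated greenhouse controls, 0 meaning no effect and 100 complete control. Formulations (solvent mixture plus surfactant) went onto soil after planting, onto foliage of 1- to 4-leaf plants, and onto 2-leaf plants in a flooded paddy set including rice and barnyardgrass.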

blackgrass = experiment: Test B postemergence herbicide test; format: in vivo, Alopecurus myosuroides; conditions: postemergence, visual rating, scale 0 (no effect) to 100 (complete control)
Procedure, shortened: (§3)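 Read-out: visual comparison with controls, scored 0 to 100, where 100 means complete control and 0 no effect. Formulated chemicals were applied postemergence to plants 2–18 cm tall (1- to 4-leaf), or to flooded-paddy plants at the 2-leaf stage, then held 13 to 15 days under glass.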

rice [1] = experiment: Test B flooded paddy test; format: in vivo, Oryza sativa; conditions: 1000 g ai/ha, scale 0 to 100 (0 no effect, 100 complete control)
Procedure, shortened: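 Postemergence plants were sprayed with formulated test chemicals at 2 to 18 cm height (1- to 4-leaf stage); paddy species were grown to the 2-leaf stage. After 13 to 15 days in a greenhouse, injury was rated visually against untreated controls on a 0–100 scale (0 = no effect, 100 = complete control).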

barnyardgrass [2] = experiment: Test B pre-/postemergence herbicide test; format: in vivo, Echinochloa crus-galli; conditions: for Barnyardgrass plant response rating (0 to 100 scale) / Plant response rating, Barnyardgrass: preemergence; for Barnyardgrass plant response rating: postemergence, scale 0 (no effect) to 100 (complete control)
Procedure, shortened: (§4)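 Pre: seeds sown, then sprayed. Post: 1–4-leaf plants (2–18 cm) sprayed at the same time. Paddy: flooded, treated at 2-leaf stage. Formulation: non-phytotoxic solvent with surfactant. Greenhouse 13–15 days; visual 0–100 score relative to controls.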

morningglory = experiment: Test B pre-/postemergence herbicide test; format: in vivo, Ipomoea coccinea; conditions: for Morningglory plant response rating (0 to 100 scale) / Plant response rating, Morningglory: preemergence; for Morningglory plant response rating: postemergence
Procedure, shortened: as §4

wheat = experiment: Test B postemergence herbicide test; format: in vivo, Triticum aestivum; set-up: key to Wheat plant response rating: 0 = no effect, 100 = complete control; conditions: postemergence
Procedure, shortened: as §1

pigweed = experiment: Test B pre-/postemergence herbicide test; format: in vivo, Amaranthus retroflexus; conditions: for Pigweed plant response rating (0 to 100 scale): 0 = no effect, 100 = complete control; for Pigweed plant response rating: postemergence
Procedure, shortened: as §2

cocklebur = experiment: Test B pre-/postemergence herbicide test; format: in vivo, Xanthium strumarium; conditions: for Cocklebur plant response rating (0 to 100 scale) / Plant response rating, Cocklebur: preemergence; for Cocklebur plant response rating: postemergence, scale 0 (no effect) to 100 (complete control)
Procedure, shortened: as §4

rice [3] = experiment: Test B pre-/postemergence herbicide test; format: in vivo, Oryza sativa; conditions: preemergence; for Rice plant response rating (0 to 100 scale): 125 g ai/ha; for Plant response rating, Rice: 500 g ai/ha
Procedure, shortened: as §2

Surinam grass = experiment: Test B pre-/postemergence herbicide test; format: in vivo, Urochloa decumbens; conditions: for Surinam Grass plant response rating (0 to 100 scale) / Plant response rating, Surinam Grass: preemergence; for Surinam Grass plant response rating: postemergence
Procedure, shortened: as §2

barnyardgrass [4] = experiment: Test B flooded paddy test; format: in vivo, Echinochloa crus-galli; conditions: 1000 g ai/ha, scale 0 to 100 (0 no effect, 100 complete control)
Procedure, shortened: as §3

large crabgrass = experiment: Test B pre-/postemergence herbicide test; format: in vivo, Digitaria sanguinalis; conditions: for Crabgrass, Large plant response rating (0 to 100 scale) / Plant response rating, Crabgrass, Large: preemergence; for Crabgrass, Large plant response rating: postemergence
Procedure, shortened: as §2

ducksalad = experiment: Test B flooded paddy test; format: in vivo, Heteranthera limosa; conditions: 1000 g ai/ha, scale 0 to 100 (0 no effect, 100 complete control)
Procedure, shortened: as §3

velvetleaf = experiment: Test B pre-/postemergence herbicide test; format: in vivo, Abutilon theophrasti; conditions: for Velvetleaf plant response rating (0 to 100 scale) / Plant response rating, Velvetleaf: preemergence; for Velvetleaf plant response rating: postemergence
Procedure, shortened: as §2

giant foxtail = experiment: Test B pre-/postemergence herbicide test; format: in vivo, Setaria faberi; conditions: for Foxtail, Giant plant response rating (0 to 100 scale) / Plant response rating, Foxtail, Giant: preemergence; for Foxtail, Giant plant response rating: postemergence
Procedure, shortened: as §2

[5] = test system: small flower umbrella sedge; experiment: Test B flooded paddy test; format: in vivo, Cyperus difformis; conditions: 1000 g ai/ha, scale 0 to 100 (0 no effect, 100 complete control)
Procedure, shortened: as §3

lambsquarters = experiment: Test B pre-/postemergence herbicide test; format: in vivo, Chenopodium album; conditions: for Lambsquarters plant response rating (0 to 100 scale): 0 = no effect, 100 = complete control; for Lambsquarters plant response rating: postemergence
Procedure, shortened: as §2

[6] = 125 g ai/ha, visual rating, scale 0 (no effect) to 100 (complete control)
[7] = 500 g ai/ha, scale 0 to 100, 0 is no effect, 100 is complete control
[8] = 125 g ai/ha, 0 = no effect, 100 = complete control
[9] = 500 g ai/ha, visual rating, 0 = no effect, 100 = complete control
[10] = 0 = no effect, 100 = complete control
[11] = 500 g ai/ha, visual rating, scale 0 (no effect) to 100 (complete control)
[12] = 500 g ai/ha, visual rating 0-100, 0 no effect, 100 complete control
[13] = 500 g ai/ha, visual rating 0-100, 0 no effect, 100 complete control, preemergence

CCOC(=O)c1cc(NC(=O)c2cc(C(C)(C)C)nn2CC)c(F)cc1F [Compound 250]
0: Corn plant response rating (0 to 100 scale) (corn; [8]) | Plant response rating, Corn (corn; [9]) | Barnyardgrass plant response rating (0 to 100 scale) (barnyardgrass [2]; [8]) | Morningglory plant response rating (0 to 100 scale) (morningglory; [8]) | Plant response rating, Morningglory (morningglory; [9]) | Pigweed plant response rating (0 to 100 scale) (pigweed; 125 g ai/ha, preemergence) | Cocklebur plant response rating (0 to 100 scale) (cocklebur; [8]) | Plant response rating, Cocklebur (cocklebur; [9]) | Rice plant response rating (0 to 100 scale) (rice [3]; [10]) | Barnyardgrass plant response rating (barnyardgrass [4]) | Crabgrass, Large plant response rating (0 to 100 scale) (large crabgrass; [8]) | Velvetleaf plant response rating (0 to 100 scale) (velvetleaf; [8]) | Foxtail, Giant plant response rating (0 to 100 scale) (giant foxtail; [8]) | Lambsquarters plant response rating (0 to 100 scale) (lambsquarters; 125 g ai/ha, preemergence) | Lambsquarters plant response rating (lambsquarters; [6])
50: Rice plant response rating (rice [1])
10: Blackgrass plant response rating (blackgrass; 125 g ai/ha) | Plant response rating, Barnyardgrass (barnyardgrass [2]; [9]) | Plant response rating, Rice (rice [3]; visual rating, 0 = no effect, 100 = complete control) | Surinam Grass plant response rating (0 to 100 scale) (Surinam grass; [8]) | Surinam Grass plant response rating (Surinam grass; [6]) | Plant response rating, Crabgrass, Large (large crabgrass; [9]) | Plant response rating, Foxtail, Giant (giant foxtail; [9])
30: Corn plant response rating (corn; [7]) | Morningglory plant response rating (morningglory; [7]) | Pigweed plant response rating (pigweed; [6]) | Cocklebur plant response rating (cocklebur; 125 g ai/ha, visual rating) | Plant response rating, Surinam Grass (Surinam grass; [9]) | Velvetleaf plant response rating (velvetleaf; [7]) | Foxtail, Giant plant response rating (giant foxtail; [7])
40: Oat, Wild plant response rating (wild oat; [7]) | Blackgrass plant response rating (blackgrass; 500 g ai/ha) | Wheat plant response rating (wheat; [7]) | Cocklebur plant response rating (cocklebur; 500 g ai/ha, visual rating) | Ducksalad plant response rating (ducksalad) | Lambsquarters plant response rating (lambsquarters; [7])
20: Oat, Wild plant response rating (wild oat; [6]) | Corn plant response rating (corn; [6]) | Barnyardgrass plant response rating (barnyardgrass [2]; 125 g ai/ha, visual rating) | Barnyardgrass plant response rating (barnyardgrass [2]; 500 g ai/ha, visual rating) | Morningglory plant response rating (morningglory; [6]) | Wheat plant response rating (wheat; [6]) | Surinam Grass plant response rating (Surinam grass; [7]) | Crabgrass, Large plant response rating (large crabgrass; [6]) | Crabgrass, Large plant response rating (large crabgrass; [7]) | Plant response rating, Velvetleaf (velvetleaf; [9]) | Velvetleaf plant response rating (velvetleaf; [6]) | Foxtail, Giant plant response rating (giant foxtail; [6])
70: Pigweed plant response rating (pigweed; [7]) | Sedge, Umbrella plant response rating [5]

CCN(CC)C(=O)c1cccc(NC(=O)c2nn(C(C)(C)C)cc2C(F)(F)F)c1 [Compound 169]
100: Plant response rating, Pigweed (pigweed; [13])
10: Oat, Wild plant response rating (wild oat; [6]) | Oat, Wild plant response rating (wild oat; [11]) | Corn plant response rating (corn; [6]) | Corn plant response rating (corn; [11]) | Blackgrass plant response rating (blackgrass; 500 g ai/ha) | Plant response rating, Barnyardgrass (barnyardgrass [2]; [12]) | Barnyardgrass plant response rating (barnyardgrass [2]; 500 g ai/ha, visual rating) | Plant response rating, Morningglory (morningglory; [12]) | Plant response rating, Surinam Grass (Surinam grass; [12]) | Surinam Grass plant response rating (Surinam grass; [11]) | Crabgrass, Large plant response rating (large crabgrass; [6]) | Crabgrass, Large plant response rating (large crabgrass; [11]) | Plant response rating, Foxtail, Giant (giant foxtail; [12])
20: Morningglory plant response rating (morningglory; [6]) | Pigweed plant response rating (pigweed; [6])
0: Corn plant response rating (0 to 100 scale) (corn; [8]) | Plant response rating, Corn (corn; [12]) | Blackgrass plant response rating (blackgrass; 125 g ai/ha) | Rice plant response rating (rice [1]; visual rating, 13 to 15 days) | Barnyardgrass plant response rating (0 to 100 scale) (barnyardgrass [2]; [8]) | Barnyardgrass plant response rating (barnyardgrass [2]; 125 g ai/ha, visual rating) | Morningglory plant response rating (0 to 100 scale) (morningglory; [8]) | Wheat plant response rating (wheat; [6]) | Wheat plant response rating (wheat; [11]) | Pigweed plant response rating (0 to 100 scale) (pigweed; 125 g ai/ha, preemergence) | Cocklebur plant response rating (0 to 100 scale) (cocklebur; [8]) | Plant response rating, Cocklebur (cocklebur; [12]) | Cocklebur plant response rating (cocklebur; 125 g ai/ha, visual rating) | Cocklebur plant response rating (cocklebur; 500 g ai/ha, visual rating) | Rice plant response rating (0 to 100 scale) (rice [3]; [10]) | Plant response rating, Rice (rice [3]; visual rating 0-100, 0 no effect, 100 complete control) | Surinam Grass plant response rating (0 to 100 scale) (Surinam grass; [8]) | Surinam Grass plant response rating (Surinam grass; [6]) | Barnyardgrass plant response rating (barnyardgrass [4]; visual rating, 13 to 15 days) | Crabgrass, Large plant response rating (0 to 100 scale) (large crabgrass; [8]) | Ducksalad plant response rating (ducksalad; visual rating, 13 to 15 days) | Velvetleaf plant response rating (0 to 100 scale) (velvetleaf; [8]) | Plant response rating, Velvetleaf (velvetleaf; [12]) | Velvetleaf plant response rating (velvetleaf; [6]) | Velvetleaf plant response rating (velvetleaf; [11]) | Foxtail, Giant plant response rating (0 to 100 scale) (giant foxtail; [8]) | Foxtail, Giant plant response rating (giant foxtail; [6]) | Foxtail, Giant plant response rating (giant foxtail; [11]) | Sedge, Umbrella plant response rating ([5]; visual rating, 13 to 15 days) | Lambsquarters plant response rating (0 to 100 scale) (lambsquarters; 125 g ai/ha, preemergence)
60: Plant response rating, Lambsquarters (lambsquarters; [13]) | Lambsquarters plant response rating (lambsquarters; [11])
70: Morningglory plant response rating (morningglory; [11])
40: Pigweed plant response rating (pigweed; [11]) | Plant response rating, Crabgrass, Large (large crabgrass; [12]) | Lambsquarters plant response rating (lambsquarters; [6])

Reference: patent US20060069132A1, “Azolecarboxamide herbicides” (priority 2004, published 2006)
